According to patent EP0052909A1, “Derivative of alfa-mercaptopropionilglicine having therapeutical activity, process for its preparation and related pharmaceutical compositions” (Real S.a.s. di Alberto Reiner & C., priority 1980, dated 1982):
Structures can show the parent of a compound that is named as a salt.

Assays:
Solubility in water = format: physicochemical
[1] = Acute toxicity by oral route in the rat; format: in vivo; conditions: rat, in vivo, rat, evaluated ten days after administration
Description: (§1) Sprague-Dawley albine rats having an average weight of 120 + 5 g and of both sexes were used.
(§2) For each compound 40 rats were treated. The test compound as a suspension in 5% arabic gum was administered through a gastric probe.
(§3) The results were evaluated ten days after the administration.

[2] = test system: Sprague-Dawley albine rats; assay: Acute toxicity by oral route in the rat; format: in vivo; conditions: evaluated ten days after administration
Description: as §1, §2, §3

[3] = test system: rats of male sex, of the Sprague-Dawley strain; assay: Anti-inflammatory activity in the kaolin test; format: in vivo; conditions: rat, 10% suspension of kaolin, diameter of the articulation
Description: (§4) The tests used for the evaluation of the anti-inflammatory activity were respectively that of the kaolin and that of the egg white.
a) Anti-inflammatory activity in the kaolin test. For each compound 16 rats of male sex, of the Sprague-Dawley strain and of 200-250 g of body weight, were used. The rats were divided into four groups each comprising four rats. All the animals were injected with a 10% suspension of kaolin. The first group was used as the control, whereas the other three groups were administered with doses respectively of 50,75 and 100 mg/Kg. The measurements of the diameters of the articulation were effected one hour after the kaolin injection and then every 24 hours.
The inoculation of kaolin caused an increase of the tibio-tarsal articulation which has been partially limited by the treatment with the test compound.

[4] = test system: male rats, of the Sprague-Dawley strain; assay: Anti-inflammatory activity in the egg white test; format: in vivo, rat; conditions: two oral doses of 100 mg/Kg with a 30 minute interval, 0,1 ml of egg white in the rear paw, measured 3 and 4 hours later
Description: as §4
For each compound 16 male rats, of the Sprague-Dawley strain and weighing 300 g, were used. The animals were divided- in four groups each comprising four rats. The first group served as a control, whereas the other three groups were orally administered, with a 30 minute interval, with two doses of 50,75 and 100 mg/Kg of the test compound.
The last administration was immediately followed by the inoculation of 0,1 ml of egg white in the rear paw of all the animals, including the controls. The measurements of the diameters of the articulations were effected 3 and 4 hours later.

female rats = assay: Test for possible teratogenic action; format: in vivo, rat; conditions: 50 mg/Kg from the beginning up to the 19-20 day of gestation
Description: The subject compound was also tested with respect to a possible teratogenic action, by administering to female rats a dose of 50 mg/Kg from the beginning up to the 19-20 day of gestation.

[5] = TREATMENT 900 (900 mg/Kg elsewhere in the source), oral by gastric probe

## CC(C)Cc1ccc(C(C)C(=O)SC(C)C(=O)NCC(=O)O)cc1 (stereo not shown) [magnesium salt]
Solubility in water
  solubility in water: insoluble

## CC(C)Cc1ccc(C(C)C(=O)SC(C)C(=O)NCC(=O)O)cc1 (stereo not shown) [calcium salt]
Solubility in water
  solubility in water: insoluble

## CC(C)Cc1ccc(C(C)C(=O)SC(C)C(=O)NCC(=O)O)cc1 (stereo not shown) [potassium salt]
Solubility in water
  solubility in water: highly soluble in water

## CC(C)Cc1ccc(C(C)C(=O)SC(C)C(=O)NCC(=O)O)cc1 (stereo not shown) [test compound]
[1]; po
  LD50 at 240 h: > 900 mg/kg
[1]; [5]
  mortality at 240 h: 0%
[2]; TREATMENT 150 (dose unit not given), oral by gastric probe, suspension in 5% arabic gum
  dead/living: 0/8
[2]; TREATMENT 300, oral by gastric probe
  dead/living: 0/8
[2]; TREATMENT 450, oral by gastric probe
  dead/living: 0/8
[2]; TREATMENT 600, oral by gastric probe
  dead/living: 0/8
[2]; [5]
  dead/living: 0/8
[3]; 75 mg/kg
  ANTI-INFLAMMATORY ACTIVITY %: 10%
[3]; 100 mg/kg
  ANTI-INFLAMMATORY ACTIVITY %: 26%
[4]
  ANTI-INFLAMMATORY ACTIVITY %: 26%
Female rats
  reabsorption number and the foeti in the treated rats with respect to the controls: no significant difference
  weight of the foeti: did not revealed whatsoever anomaly

## CC(C)Cc1ccc(C(C)C(=O)SC(C)C(=O)NCC(=O)O)cc1 (stereo not shown) [sodium salt]
Solubility in water
  solubility in water: highly soluble in water
